Measurements published in patent US8101618B2, “1,4-substituted piperazine derivatives” (MSD K.K., priority 2005, dated 2012).

Key:
[1] = target: T1, human metabotropic glutamic acid receptor 1a (mGluR1a) (Homo sapiens, UniProt Q13255); assay: Measurement of intracellular calcium concentration (FLIPR) in mGluR1a-expressing CHO cells; format: cell-based; conditions: for IC50: Fluo-3, compound added 5 minutes before 10 μM glutamic acid, read-out: IC50 (inhibition of the calcium increase caused by 10 μM glutamic acid); for agonistic effect to mGluR1: to 10 μM, intracellular calcium
T1 construct: expressed in transfected cells
T1 sequence (Q13255 19-1194): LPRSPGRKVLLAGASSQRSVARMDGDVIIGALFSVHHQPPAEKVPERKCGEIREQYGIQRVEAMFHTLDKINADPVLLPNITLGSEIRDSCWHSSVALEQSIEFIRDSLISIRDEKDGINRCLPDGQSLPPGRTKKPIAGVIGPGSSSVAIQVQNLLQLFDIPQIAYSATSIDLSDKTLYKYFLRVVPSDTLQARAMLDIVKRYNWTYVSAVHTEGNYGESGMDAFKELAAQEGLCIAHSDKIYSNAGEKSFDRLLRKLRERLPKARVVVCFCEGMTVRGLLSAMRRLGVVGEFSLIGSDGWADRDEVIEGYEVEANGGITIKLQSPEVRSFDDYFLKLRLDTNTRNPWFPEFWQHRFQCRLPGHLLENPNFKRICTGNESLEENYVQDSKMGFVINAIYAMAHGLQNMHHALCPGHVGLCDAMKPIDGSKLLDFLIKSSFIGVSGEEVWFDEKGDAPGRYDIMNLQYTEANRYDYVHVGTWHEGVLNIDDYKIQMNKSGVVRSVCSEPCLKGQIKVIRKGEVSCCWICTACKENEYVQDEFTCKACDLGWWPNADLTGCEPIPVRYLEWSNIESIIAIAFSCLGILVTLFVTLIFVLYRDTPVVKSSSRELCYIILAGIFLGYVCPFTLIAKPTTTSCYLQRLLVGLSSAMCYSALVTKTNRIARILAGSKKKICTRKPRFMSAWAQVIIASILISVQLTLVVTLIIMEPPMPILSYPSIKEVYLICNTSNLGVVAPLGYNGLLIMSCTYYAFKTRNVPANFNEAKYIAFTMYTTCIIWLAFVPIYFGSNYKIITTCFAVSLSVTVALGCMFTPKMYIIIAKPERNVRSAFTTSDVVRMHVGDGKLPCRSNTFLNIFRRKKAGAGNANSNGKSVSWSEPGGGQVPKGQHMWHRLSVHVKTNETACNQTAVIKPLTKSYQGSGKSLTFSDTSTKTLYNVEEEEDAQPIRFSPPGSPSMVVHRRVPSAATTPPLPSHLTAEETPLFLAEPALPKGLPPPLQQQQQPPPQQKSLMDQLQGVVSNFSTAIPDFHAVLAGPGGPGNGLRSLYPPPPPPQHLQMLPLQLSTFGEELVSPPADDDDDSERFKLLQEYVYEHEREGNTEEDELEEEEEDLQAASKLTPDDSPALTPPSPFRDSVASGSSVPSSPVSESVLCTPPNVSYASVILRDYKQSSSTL
Description: Using LIPOFECTAMINE (BY Gibco BRL), CHO cells were transfected with a cDNA of a human metabotropic glutamic acid receptor 1a (mGluR1a), thereby obtaining an mGluR1a stable expression strain. The mGluR1a-expressing CHO cells were incubated in a DMEM medium containing 10% dialyzed fetal calf serum, 1% proline, 100 units/ml penicillin, 0.1 mg/ml streptomycin sulfate, and 2 mM glutamine.
On the day before the test day, the mGluR1a-expressing CHO cells that had been plated in a 96-well black plate (View Plate by Packard) at […] with 4 μM Fluo-3 were incubated in a CO2 incubator for 1 hour. Next, the cells were washed four times with an HBSS solution containing 20 mM HEPES and 2.5 mM Probenecid, and then the intracellular calcium concentration was measured using Fluorescence Imaging Plate Reader (FLIPR by Molecular Device). The test compound and glutamic acid were conditioned with an HBSS solution containing 20 mM HEPES and 2.5 mM Probenecid. The test compound was added to the system before 5 minutes of agonist stimulation, and 10 μM glutamic acid was used as the agonist.

Male ICR (CD-1) mice = assay: Inhibitory effect of compound to mouse action increased by methamphetamine; format: in vivo; conditions: compound 30 mg/kg intraabdominal 30 minutes before methamphetamine 2 mg/kg subcutaneous; motion watched for 60 minutes
Description: Male ICR (CD-1) mice (20-40 g) were used. Using a motion watcher (by Neuroscience) for watching animal movement with an IR sensor, the motion of the mice was determined. A compound or a suitable solvent was administered to each mouse, and after 30 minutes, physiological saline water or methamphetamine was administered thereto. Immediately after that, the motion of the mice was watched for 60 minutes. Based on the difference between the motion of the methamphetamine-administered group and the solvent-administered group during the test term, 100%, the motion of the test compound-administered group is computed and expressed as inhibition %.

Row | SMILES | IC50 [1] [nM] | agonistic effect to mGluR1 [1] | Motion (inhibition %) (Male ICR (CD-1) mice) [%]
1 | C[C@H](O)c1nc(-c2ccnc(N3CCN(C(=O)CCC(C)(C)C)CC3)c2)no1 [Example 58, 1-(4,4-Dimethylpentanoyl)-4-(4-{5-[(1S)-hydroxyethyl]-1,2,4-oxadiazol-3-yl}pyridin-2-yl)piperazine] | 16 | no agonistic effect | >50
2 | CC(C)(C)COC(=O)N1CCN(c2nc3ccccc3o2)CC1 [Example 3, 2,2-Dimethylpropyl 4-(benzoxazol-2-yl)-1-piperazinecarboxylate] | 33 | no agonistic effect | 
3 | CNc1nc(-c2ccnc(N3CCN(C(=O)OCC(C)(C)C)CC3)c2)no1 [Example 39, 2,2-Dimethylpropyl 4-{4-[5-(methylamino)-1,2,4-oxadiazol-3-yl]pyridin-2-yl}-1-piperazinecarboxylate] | 13 | no agonistic effect | >50
4 | C[C@@H](O)c1nc(-c2ccnc(N3CCN(C(=O)OCC(C)(C)C)CC3)c2)no1 [Example 27, 2,2-Dimethylpropyl 4-(4-{5-[(1R)-1-hydroxyethyl]-1,2,4-oxadiazol-3-yl}pyridin-2-yl)-1-piperazinecarboxylate] | 9.6 | no agonistic effect | >50
5 | Cc1ccnc(N2CCN(C(=O)OCC(C)(C)C)CC2)c1 [Example 1, 2,2-Dimethylpropyl 4-(4-methylpyridin-2-yl)-1-piperazinecarboxylate] | 6.9 | no agonistic effect | >50
